Key:
Test in all cases: Bliss excess, mean over the matrix (fraction); higher = more synergy
[1] = system: SK-PN-DW (Other Solid Carcinomas)
Outline: (§1)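 Cell lines grown in DMEM/F12 or RPMI with 10% FBS were plated in 1536-well plates and held 24 hours at 37°C, 5% CO2 before 72 hours of exposure to two-drug dose matrices, with DMSO typically at 0.2%. CellTiter-Glo 2.0 luminescence gave viability, which was converted to inhibition. Vehicle wells were set to 0 and blank wells to 1. Combination Emax is the second-highest inhibition in the matrix, and Bliss excess is the observed combination effect minus the expected EA + EB − EA·EB, where EA and EB are the single-agent effects.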

[2] = system: SHP-77 (Small Cell Lung Carcinoma)
Outline: as §1

[3] = system: HEC-1 (Endometrial Carcinoma)
Outline: as §1

[4] = system: L-1236 (Hodgkin's Lymphoma)
Outline: as §1

[5] = system: OVMIU (Ovarian Carcinoma)
Outline: as §1

SF539 (Glioblastoma) = system: SF539 (Glioblastoma)
Outline: as §1

[6] = system: NCI-H2342 (Lung Adenocarcinoma)
Outline: as §1

[7] = system: CAL-62 (Thyroid Gland Carcinoma)
Outline: as §1

[8] = system: RERF-LC-Sq1 (Squamous Cell Lung Carcinoma)
Outline: as §1

[9] = system: HSC-39 (Gastric Carcinoma)
Outline: as §1

[10] = system: NCI-H446 (Small Cell Lung Carcinoma)
Outline: as §1

IST-MES1 (Mesothelioma) = system: IST-MES1 (Mesothelioma)
Outline: as §1

[11] = system: KE-37 (T-Lymphoblastic Leukemia)
Outline: as §1

[12] = system: REH (B-Lymphoblastic Leukemia)
Outline: as §1

[13] = system: RERF-GC-1B (Gastric Carcinoma)
Outline: as §1

[14] = system: OAW-42 (Ovarian Carcinoma)
Outline: as §1

[15] = system: HCT-15 (Colorectal Carcinoma)
Outline: as §1

WM278 (Melanoma) = system: WM278 (Melanoma)
Outline: as §1

GB-1 (Glioblastoma) = system: GB-1 (Glioblastoma)
Outline: as §1

[16] = system: PSN1 (Pancreatic Carcinoma)
Outline: as §1

Compound | Bliss excess [1] | Bliss excess [2] | Bliss excess [3] | Bliss excess [4] | Bliss excess [5] | Bliss excess (SF539 (Glioblastoma)) | Bliss excess [6] | Bliss excess [7] | Bliss excess [8] | Bliss excess [9] | Bliss excess [10] | Bliss excess (IST-MES1 (Mesothelioma)) | Bliss excess [11] | Bliss excess [12] | Bliss excess [13] | Bliss excess [14] | Bliss excess [15] | Bliss excess (WM278 (Melanoma)) | Bliss excess (GB-1 (Glioblastoma)) | Bliss excess [16]
CC(=O)c1c(C)c2cnc(Nc3ccc(N4CCNCC4)cn3)nc2n(C2CCCC2)c1=O [Palbociclib] + Cn1cnc2c(F)c(Nc3ccc(Br)cc3Cl)c(C(=O)NOCCO)cc21 [Selumetinib] (first compound max 10 µM, 7x7, partner max 10 µM) | -0.0164 | 0.0052 | -0.0391 | -0.0841 | -0.0097 | -0.0345 | -0.0441 | 0.0248 | -0.0488 | -0.0069 | -0.0689 | -0.0799 | 0.0207 | -0.0229 | -0.0329 | -0.0555 | 0.0538 | -0.0152 | -0.0016 | 0.0226
COc1cccc(OCCCN)c1-c1cc(Nc2cnc(C#N)cn2)n[nH]1 [Prexasertib] + CCc1c2c(nc3ccc(O)cc13)-c1cc3c(c(=O)n1C2)COC(=O)[C@]3(O)CC [SN-38] (first compound max 1 µM, 7x7, partner max 0.3 µM) | -0.0672 | 0.121 | 0.0893 | -0.0584 | -0.0921 | -0.0091 | -0.0703 | -0.0543 | -0.0081 | 0.0026 | 0.0756 | -0.026 | -0.0182 | -0.0054 | 0.0318 | -0.0263 | 0.051 | -0.0479 | -0.0438 | 0.0569
C[C@@H](c1ccc2nccn2c1)n1nnc2ncc(-c3cnn(C)c3)nc21 [Savolitinib] + CC1(C)CCC(CN2CCN(c3ccc(C(=O)NS(=O)(=O)c4ccc(NCC5CCOCC5)c([N+](=O)[O-])c4)c(Oc4cnc5[nH]ccc5c4)c3)CC2)=C(c2ccc(Cl)cc2)C1 [Venetoclax] (first compound max 1 µM, 7x7, partner max 1 µM) | -0.0349 | -0.0623 | -0.0423 | 0.0176 | -0.0569 | -0.0697 | -0.0631 | -0.0246 | -0.0562 | 0.0096 | 0.0246 | -0.0318 | -0.0357 | -0.0192 | -0.0303 | -0.024 | -0.012 | -0.0614 | -0.0626 | -0.0411
C[C@@H](c1ccc2nccn2c1)n1nnc2ncc(-c3cnn(C)c3)nc21 [Savolitinib] + Cc1c2c(nn1C)CSCc1cc(n(C)n1)CSc1cc(c3ccccc3c1)OCCCc1c(C(=O)O)n(C)c3c-2c(Cl)ccc13 [AZD5991] (first compound max 1 µM, 7x7, partner max 1 µM) | -0.0656 | -0.0662 | -0.0541 | -0.0017 | -0.0415 | -0.0337 | 0.0288 | -0.022 | -0.009 | -0.0133 | 0.0471 | -0.0435 | -0.0335 | -0.0369 | -0.0141 | -0.0474 | 0.0013 | -0.0386 | -0.0495 | -0.0182
Cn1cnc2c(F)c(Nc3ccc(Br)cc3Cl)c(C(=O)NOCCO)cc21 [Selumetinib] + C=CCn1c(=O)c2cnc(Nc3ccc(N4CCN(C)CC4)cc3)nc2n1-c1cccc(C(C)(C)O)n1 [AZD1775] (first compound max 10 µM, partner max 1 µM) | 0.0095 | 0.0141 | -0.0448 | -0.0131 | -0.0888 | -0.025 | -0.0366 | 0.0273 | -0.0617 | -0.0725 | -0.0441 | -0.0955 | 0.0083 | -0.0424 | 0.025 | -0.0694 | -0.0198 | -0.0183 | -0.0522 | -0.0321
Cn1cnc2c(F)c(Nc3ccc(Br)cc3Cl)c(C(=O)NOCCO)cc21 [Selumetinib] + CC(C)n1c(=O)n(C)c2cnc3cc(F)c(-c4ccc(OCCCN5CCCCC5)nc4)cc3c21 [AZD1390] (first compound max 10 µM, 7x7, partner max 0.3 µM) | -0.0289 | -0.0038 | -0.0412 | 0.0284 | -0.0444 | -0.0232 | -0.0489 | -0.0319 | 0.0117 | 0.0253 | -0.0469 | -0.0382 | 0.0255 | -0.0323 | 0.0413 | -0.0392 | -0.0001 | -0.0352 | -0.0574 | -0.0639
Cn1cnc2c(F)c(Nc3ccc(Br)cc3Cl)c(C(=O)NOCCO)cc21 [Selumetinib] + CCN(CCO)CCCOc1ccc2c(Nc3cc(CC(=O)Nc4cccc(F)c4)[nH]n3)ncnc2c1 [AZD2811] (first compound max 10 µM, 7x7, partner max 1 µM) | -0.0744 | 0.0447 | -0.0402 | 0.0086 | -0.038 | -0.0193 | -0.0569 | 0.0427 | -0.0041 | -0.0355 | -0.0069 | -0.0718 | -0.0047 | -0.0464 | 0.0288 | -0.011 | 0.0193 | -0.0003 | -0.0512 | -0.0501
Cn1cnc2c(F)c(Nc3ccc(Br)cc3Cl)c(C(=O)NOCCO)cc21 [Selumetinib] + C[C@@H]1COCCN1C2=NC(=NC(=C2)C3(CC3)[S@](=N)(=O)C)C4=C5C=CNC5=NC=C4 [AZD6738] (first compound max 10 µM, 7x7, partner max 10 µM) | -0.0011 | 0.0421 | -0.0317 | -0.041 | -0.0084 | 0.0586 | -0.0577 | 0.0142 | 0.0516 | -0.0391 | 0.0036 | -0.0374 | 0.0087 | -0.0612 | 0.152 | -0.0257 | -0.0057 | 0.0642 | -0.0347 | -0.0193
CC(=O)Nc1cccc(-n2c(=O)n(C3CC3)c(=O)c3c(Nc4ccc(I)cc4F)n(C)c(=O)c(C)c32)c1 [Trametinib] + Cc1nc(-c2cn3c(n2)-c2ccc(-c4cnn(C(C)(C)C(N)=O)c4)cc2OCC3)n(C(C)C)n1 [Taselisib] (first compound max 1 µM, 7x7, partner max 10 µM) | -0.0286 | 0.107 | 0.11 | 0.0881 | 0.0474 | 0.177 | 0.0446 | 0.15 | 0.0906 | 0.184 | 0.0967 | 0.0469 | 0.0968 | 0.0939 | 0.0909 | 0.109 | 0.139 | 0.13 | 0.159 | 0.0665
CC1(C)CCC(CN2CCN(c3ccc(C(=O)NS(=O)(=O)c4ccc(NCC5CCOCC5)c([N+](=O)[O-])c4)c(Oc4cnc5[nH]ccc5c4)c3)CC2)=C(c2ccc(Cl)cc2)C1 [Venetoclax] + C1CN(CCC1(C(=O)N[C@@H](CCO)C2=CC=C(C=C2)Cl)N)C3=NC=NC4=C3C=CN4 [Capivasertib] (first compound max 1 µM, 7x7, partner max 3 µM) | -0.0892 | -0.0797 | -0.0465 | -0.0739 | -0.112 | -0.0189 | -0.0359 | -0.0409 | -0.0391 | -0.0104 | -0.0257 | -0.033 | 0.012 | 0.0111 | -0.0297 | -0.0539 | -0.0383 | -0.0699 | -0.0038 | -0.0707
CC1(C)CCC(CN2CCN(c3ccc(C(=O)NS(=O)(=O)c4ccc(NCC5CCOCC5)c([N+](=O)[O-])c4)c(Oc4cnc5[nH]ccc5c4)c3)CC2)=C(c2ccc(Cl)cc2)C1 [Venetoclax] + C=CCn1c(=O)c2cnc(Nc3ccc(N4CCN(C)CC4)cc3)nc2n1-c1cccc(C(C)(C)O)n1 [AZD1775] (first compound max 1 µM, partner max 1 µM) | 0.0457 | 0.0141 | -0.0569 | 0.0035 | -0.013 | -0.0234 | -0.0184 | 0.0452 | -0.0437 | 0.0776 | -0.029 | -0.0281 | 0.0083 | 0.0623 | -0.112 | -0.0283 | -0.0265 | -0.0413 | 0.0144 | -0.0553
CC1(C)CCC(CN2CCN(c3ccc(C(=O)NS(=O)(=O)c4ccc(NCC5CCOCC5)c([N+](=O)[O-])c4)c(Oc4cnc5[nH]ccc5c4)c3)CC2)=C(c2ccc(Cl)cc2)C1 [Venetoclax] + CCN(CCO)CCCOc1ccc2c(Nc3cc(CC(=O)Nc4cccc(F)c4)[nH]n3)ncnc2c1 [AZD2811] (first compound max 1 µM, 7x7, partner max 1 µM) | -0.0703 | 0.0432 | -0.0262 | -0.0197 | -0.0851 | 0.0468 | -0.019 | 0.0363 | 0.0197 | 0.0077 | -0.0077 | -0.0327 | -0.0266 | 0.18 | 0.0028 | -0.0059 | 0.0051 | -0.0119 | -0.0501 | -0.0478
